Assay results published in PMC10151467, “Elucidating the origins of phycocyanobilin biosynthesis and phycobiliproteins” (Proceedings of the National Academy of Sciences of the …, 2023).

What was measured:
[1] = biological target: T1, POZ53552 (BBAG-1) (Methylovulum psychrotolerans, UniProt A0A2S5CS40); assay: absorption of purified holoprotein, acid denaturation; type: binding; conditions: covalent (CXRD motif)
T1 construct: gene AADEFJLK_00580; synthetic gene in pET28 (pET28-RcaE backbone); coexpressed in E. coli with bilin biosynthesis plasmid; CXRD motif
T1 sequence (A0A2S5CS40 1-198): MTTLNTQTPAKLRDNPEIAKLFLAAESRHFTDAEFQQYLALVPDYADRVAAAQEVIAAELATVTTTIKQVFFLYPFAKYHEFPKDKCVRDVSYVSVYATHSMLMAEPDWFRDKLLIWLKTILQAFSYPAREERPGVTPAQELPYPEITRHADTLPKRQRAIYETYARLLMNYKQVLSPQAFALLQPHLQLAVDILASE

[2] = biological target: T2, Cph1 (N514 truncation) (Synechocystis sp. PCC 6803, UniProt Q55168); assay: absorption, photoconversion, acid denaturation; type: binding; conditions: covalent adduct
T2 construct: N514 truncation construct sufficient for photoconversion, His-tagged, E. coli
T2 sequence (Q55168 1-514): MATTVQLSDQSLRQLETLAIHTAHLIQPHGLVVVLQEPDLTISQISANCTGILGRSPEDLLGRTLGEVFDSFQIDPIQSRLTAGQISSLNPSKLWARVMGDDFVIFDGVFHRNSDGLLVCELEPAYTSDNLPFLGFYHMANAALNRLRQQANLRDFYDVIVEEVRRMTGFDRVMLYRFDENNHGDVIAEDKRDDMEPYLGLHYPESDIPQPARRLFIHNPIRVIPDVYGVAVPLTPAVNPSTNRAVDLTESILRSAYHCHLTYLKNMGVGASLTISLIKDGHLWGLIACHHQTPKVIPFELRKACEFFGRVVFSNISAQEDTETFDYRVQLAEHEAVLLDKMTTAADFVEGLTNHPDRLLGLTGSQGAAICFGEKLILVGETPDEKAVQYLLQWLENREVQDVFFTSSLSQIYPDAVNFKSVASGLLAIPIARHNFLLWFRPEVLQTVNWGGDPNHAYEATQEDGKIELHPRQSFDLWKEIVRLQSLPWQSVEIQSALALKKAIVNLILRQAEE

[3] = biological target: T3, CAP_1521 (BBAG-2) (Chondromyces apiculatus, UniProt A0A017TC46); assay: absorption of purified holoprotein, acid denaturation, CD; type: binding; conditions: covalent adduct; coexpressed in E. coli with HO POZ53545 and CAP_1520; 25 °C
T3 construct: coexpressed in E. coli with bilin biosynthesis plasmid
T3 sequence (A0A017TC46 1-259): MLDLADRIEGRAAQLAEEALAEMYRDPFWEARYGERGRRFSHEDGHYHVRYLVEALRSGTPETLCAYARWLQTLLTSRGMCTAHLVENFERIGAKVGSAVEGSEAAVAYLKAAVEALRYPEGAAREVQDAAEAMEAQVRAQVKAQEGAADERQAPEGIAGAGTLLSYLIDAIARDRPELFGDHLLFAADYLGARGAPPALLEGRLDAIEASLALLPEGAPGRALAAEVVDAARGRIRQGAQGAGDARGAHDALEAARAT

[4] = biological target: T1, POZ53552 (BBAG-1); assay: absorption of purified holoprotein; type: binding; conditions: covalent (CXRD motif); coexpressed with HO POZ53545 alone (Spam-545xc); poor chromophorylation
[5] = biological target: T4, POZ53557 (pre-1 FDBR) (Methylovulum psychrotolerans, UniProt A0A2S5CS30); assay: coexpression in E. coli with HO and Cph1 reporter; bilin identified on reporter; type: cell-based; conditions: E. coli coexpression with HO POZ53545; inefficient reduction to PΦB
T4 construct: gene pcyA; replaces alt-PcyA in plasmid Spam-545/alt557, coexpressed in E. coli with HO and Cph1 reporter; not purified
T4 sequence (A0A2S5CS30 1-228): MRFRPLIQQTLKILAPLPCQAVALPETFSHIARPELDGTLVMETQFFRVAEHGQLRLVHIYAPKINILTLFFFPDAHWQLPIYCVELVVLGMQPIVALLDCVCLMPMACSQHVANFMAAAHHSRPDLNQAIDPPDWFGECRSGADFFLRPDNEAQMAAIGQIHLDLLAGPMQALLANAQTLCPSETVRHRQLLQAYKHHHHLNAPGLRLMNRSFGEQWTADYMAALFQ

SMILES: C=CC1=C(C)C(=CC2=NC(=Cc3[nH]c(C=C4NC(=O)C(C)C4=CC)c(C)c3CCC(=O)O)C(CCC(=O)O)=C2C)NC1=O (stereo not shown) [PΦB]
- absorption of purified holoprotein, acid denaturation ([1]; coexpressed with Spam-545/CAP, poor chromophorylation): BBAG-1 POZ53552 incorporated PΦB when coexpressed with Spam-545/CAP
- absorption, photoconversion, acid denaturation ([2]; coexpressed with Spam-545/CAP): confirmed that this preparation contained a PΦB chromophore

SMILES: C=CC1=C(C)C(CC2=NC(=Cc3[nH]c(C=C4NC(=O)C(C)C4=CC)c(C)c3CCC(=O)O)C(CCC(=O)O)=C2C)NC1=O (stereo not shown) [PEB]
- absorption of purified holoprotein, acid denaturation ([1]; coexpressed with Spam-545/8304, mixture of PΦB and PEB adducts): Denaturation analysis confirmed that these peaks reflected a mixture of PΦB and PEB
- absorption, photoconversion, acid denaturation ([2]; coexpressed with Spam-545/8304, photoinactive population of mixed preparation): The photoinactive pink population was consistent with the known properties of the PEB adduct

SMILES: C=CC1=C(C)C(=Cc2[nH]c(C=C3N=C(C=C4NC(=O)C(C)=C4C=C)C(C)=C3CCC(=O)O)c(CCC(=O)O)c2C)NC1=O [BV]
- absorption of purified holoprotein, acid denaturation, CD [3]: Acid denaturation demonstrated that both possessed BV adducts rather than PΦB adducts
- absorption of purified holoprotein [4]: POZ53545 with no FDBR (synthesizing BV; plasmid Spam-545xc
- coexpression in E. coli with HO and Cph1 reporter; bilin identified on reporter [5]: POZ53557 appears to carry out inefficient reduction of BV to PΦB
